According to patent US11071731B2, “Allosteric modulators of the mu opioid receptor” (Chiromics, LLC, priority 2017, dated 2021):

Columns and labels:
[1] = target: T1, mu opioid receptor (MOR) (Homo sapiens, UniProt P35372); experiment: PathHunter β-arrestin recruitment assay, PAM mode with EC20 endomorphin-1; type: cell-based; settings: for β-arr Max. Resp.: maximal response for β-arrestin recruitment; for EC50: β-arrestin recruitment, read-out: β-arr. EC50
Procedure, shortened: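 β-Arrestin recruitment to the receptor was tracked by chemiluminescent β-galactosidase activity from complementing fragments (ED on receptor, EA on β-arrestin). Per-compound outputs were EC50 and percent maximal response.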

[2] = target: T1, mu opioid receptor (MOR); experiment: Hit Hunter cAMP signaling assay (adenylyl cyclase inhibition), PAM mode with EC20 endomorphin-1; type: cell-based; settings: for EC50: cAMP EC50, adenylyl cyclase inhibition; for cAMP Max. Resp.: maximal response for adenylyl cyclase inhibition

T1 sequence (P35372 whole entry, the tested form may be a part): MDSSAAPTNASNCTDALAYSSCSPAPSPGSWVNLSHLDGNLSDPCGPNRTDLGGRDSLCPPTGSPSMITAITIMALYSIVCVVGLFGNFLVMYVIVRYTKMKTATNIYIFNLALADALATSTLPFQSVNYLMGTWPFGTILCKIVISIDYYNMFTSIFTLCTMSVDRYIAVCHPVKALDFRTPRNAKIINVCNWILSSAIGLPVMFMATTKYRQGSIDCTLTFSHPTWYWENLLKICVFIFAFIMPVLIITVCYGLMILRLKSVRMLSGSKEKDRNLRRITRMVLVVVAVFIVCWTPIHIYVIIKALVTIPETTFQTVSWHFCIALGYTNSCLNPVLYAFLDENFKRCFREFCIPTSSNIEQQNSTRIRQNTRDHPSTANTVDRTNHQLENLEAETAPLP

## Fc1ccc(Cl)cc1CN1CCCCC1c1ccc(Cl)c(C(F)(F)F)c1 (stereo not drawn) [compound 150]
[1]
  β-arr Max. Resp.: F (F represents a maximal response of > 60%)
  EC50: < 700 nM
[2]
  EC50: < 700 nM
  cAMP Max. Resp.: E (E represents a maximal response of 40-60%)

## Fc1ccc(C2CCCCN2Cc2cc(Cl)cc(Cl)c2)cc1Cl (stereo not drawn) [compound 151]
[1]
  β-arr Max. Resp.: F (F represents a maximal response of > 60%)
  EC50: > 2100 nM
[2]
  EC50: > 2100 nM
  cAMP Max. Resp.: D (D represents a maximal response of < 40%)

## Fc1cccc(CN2CCCCC2c2cccc(C(F)(F)F)n2)c1 (stereo not drawn) [compound 152]
[1]
  β-arr Max. Resp.: F (F represents a maximal response of > 60%)
  EC50: > 2100 nM
[2]
  EC50: 700 to 2100 nM
  cAMP Max. Resp.: E (E represents a maximal response of 40-60%)

## FC(F)(F)c1cccc(C2CCCCN2Cc2ccc(Cl)c(Cl)c2)n1 (stereo not drawn) [compound 153]
[1]
  β-arr Max. Resp.: F (F represents a maximal response of > 60%)
  EC50: > 2100 nM
[2]
  EC50: > 2100 nM
  cAMP Max. Resp.: D (D represents a maximal response of < 40%)

## FC(F)(F)c1cccc(C2CCCCN2Cc2cccc(Cl)c2)c1 (stereo not drawn) [compound 154]
[1]
  β-arr Max. Resp.: F (F represents a maximal response of > 60%)
  EC50: < 700 nM
[2]
  EC50: < 700 nM
  cAMP Max. Resp.: E (E represents a maximal response of 40-60%)

## Fc1cc(Cl)cc(CN2CCCCC2c2ccc(F)c(Cl)c2)c1 (stereo not drawn) [compound 155]
[1]
  β-arr Max. Resp.: F (F represents a maximal response of > 60%)
  EC50: 700 to 2100 nM
[2]
  EC50: 700 to 2100 nM
  cAMP Max. Resp.: D (D represents a maximal response of < 40%)

## COc1cccc(CN2CCCCC2c2cccc(C(F)(F)F)n2)c1 (stereo not drawn) [compound 156]
[1]
  β-arr Max. Resp.: F (F represents a maximal response of > 60%)
  EC50: > 2100 nM
[2]
  EC50: > 2100 nM
  cAMP Max. Resp.: E (E represents a maximal response of 40-60%)

## Fc1cc(C2CCCCN2Cc2cccc(Cl)c2)cc(C(F)(F)F)c1 (stereo not drawn) [compound 157]
[1]
  β-arr Max. Resp.: F (F represents a maximal response of > 60%)
  EC50: > 2100 nM
[2]
  EC50: > 2100 nM
  cAMP Max. Resp.: E (E represents a maximal response of 40-60%)

## Fc1ccc(C2CCCCN2Cc2cc(Cl)ccc2Cl)cc1Cl (stereo not drawn) [compound 158]
[1]
  β-arr Max. Resp.: F (F represents a maximal response of > 60%)
  EC50: 700 to 2100 nM
[2]
  EC50: < 700 nM
  cAMP Max. Resp.: D (D represents a maximal response of < 40%)

## FC(F)(F)c1cccc(C2CCCCN2Cc2cc(Cl)cc(Cl)c2)n1 (stereo not drawn) [compound 159]
[1]
  β-arr Max. Resp.: F (F represents a maximal response of > 60%)
  EC50: 700 to 2100 nM
[2]
  EC50: 700 to 2100 nM
  cAMP Max. Resp.: E (E represents a maximal response of 40-60%)

## Fc1ccc(C2CCCCN2Cc2cc(Cl)ccc2F)cc1Cl (stereo not drawn) [compound 160]
[1]
  β-arr Max. Resp.: F (F represents a maximal response of > 60%)
  EC50: 700 to 2100 nM
[2]
  EC50: 700 to 2100 nM
  cAMP Max. Resp.: F (F represents a maximal response of > 60%)

## Fc1ccc(CN2CCCCC2c2cccc(C(F)(F)F)n2)cc1Cl (stereo not drawn) [compound 161]
[1]
  β-arr Max. Resp.: F (F represents a maximal response of > 60%)
  EC50: 700 to 2100 nM
[2]
  EC50: 700 to 2100 nM
  cAMP Max. Resp.: E (E represents a maximal response of 40-60%)

## FC(F)(F)c1cccc(C2CCCCN2Cc2cc(Cl)ccn2)n1 (stereo not drawn) [compound 162]
[1]
  β-arr Max. Resp.: F (F represents a maximal response of > 60%)
  EC50: > 2100 nM
[2]
  EC50: > 2100 nM
  cAMP Max. Resp.: E (E represents a maximal response of 40-60%)

## Fc1ccc(C2CCCCN2Cc2cc(Cl)ccc2F)cc1 (stereo not drawn) [compound 163]
[1]
  β-arr Max. Resp.: F (F represents a maximal response of > 60%)
  EC50: 700 to 2100 nM
[2]
  EC50: < 700 nM
  cAMP Max. Resp.: E (E represents a maximal response of 40-60%)

## Fc1cc(Cl)cc(CN2CCCCC2c2cccc(C(F)(F)F)n2)c1 (stereo not drawn) [compound 164]
[1]
  β-arr Max. Resp.: F (F represents a maximal response of > 60%)
  EC50: 700 to 2100 nM
[2]
  EC50: < 700 nM
  cAMP Max. Resp.: E (E represents a maximal response of 40-60%)

## FC(F)(F)c1cccc(C2CCCCN2Cc2cccc(Cl)n2)n1 (stereo not drawn) [compound 165]
[1]
  β-arr Max. Resp.: F (F represents a maximal response of > 60%)
  EC50: > 2100 nM
[2]
  EC50: 700 to 2100 nM
  cAMP Max. Resp.: F (F represents a maximal response of > 60%)

## FC(F)(F)c1cccc(C2CCCCN2Cc2ccnc(Cl)c2)n1 (stereo not drawn) [compound 166]
[1]
  β-arr Max. Resp.: F (F represents a maximal response of > 60%)
  EC50: > 2100 nM
[2]
  EC50: > 2100 nM
  cAMP Max. Resp.: E (E represents a maximal response of 40-60%)

## Fc1cc(C2CCCCN2Cc2cc(Cl)ccc2F)cc(C(F)(F)F)c1 (stereo not drawn) [compound 167]
[1]
  β-arr Max. Resp.: F (F represents a maximal response of > 60%)
  EC50: < 700 nM
[2]
  EC50: 700 to 2100 nM
  cAMP Max. Resp.: F (F represents a maximal response of > 60%)
